The values that follow come from publication PMC9697873, “Construction and Evaluation of a Novel Organic Anion Transporter 1/3 CRISPR/Cas9 Double-Knockout Rat Model” (Pharmaceutics, 2022).

Counter-ions that a name gives are not always drawn. Like-named read-outs stand apart in the source and are kept apart here.

The nature of series [1]: UTs concentration and renal uptake ratio detection in WT and KO rats. Format: in vivo, rat. The note with it: for plasma concentration of endogenous UT, KO compared with WT rats / renal uptake ratio of endogenous UT, KO compared with WT rats: 4W and/or 7W rats, n = 7; for urine concentration of endogenous UT, KO compared with WT rats: 12-h urine, 4W and 7W rats. As for the experimental part:
We collected blood, 12-h urine and kidney tissue samples of 4W and 7W WT and KO rats. The concentrations of UTs were measured by the liquid chromatography-tandem mass spectrometry (LC-MS/MS), which consisted of an Agilent 1260 liquid chromatography and a 6460 triple-quadrupole mass spectrometer operated in the electrospray ionization mode (Agilent Technologies, Santa Clara, CA, USA). Chromatographic separations were performed on an Agilent ZORBAX RR StableBond C18 analytical guard column (4.6 mm × 100 mm, 3.5 µm, Agilent Technologies, Santa Clara, CA, USA) at 30 °C. The MS parameters are shown in Supporting Information Table S1. […] The internal standard used in the positive ion mode was d3-creatinine, and in the negative ion mode was d5-hippuric acid.

Series [2] can be described thus: Urinary excretion after intravenous drug cocktail in WT and KO rats. The class given is in vivo, rat. The note with it: KO vs WT rats, i.v. cocktail, urine to 12 h.
Experimental: The blood samples were centrifuged at 8000× g for 10 min and the supernatant was stored at −80 °C for detection.
The conditions of series [3]: furosemide ref 19; PAH ref 17, 52; cited from earlier work.
Where [4] appears, read: Slc22a6/Slc22a8-/- rats, i.v. cocktail, mean ± S.D., n = 5.
[5] abbreviates: WT rats, i.v. cocktail, mean ± S.D., n = 5.

In the case of `Cc1ccc(OS(=O)(=O)O)cc1` [p-cresol sulfate], in series [1], the “plasma concentration of endogenous UT, KO compared with WT rats” value is on record as “significantly increased” and the “renal uptake ratio of endogenous UT, KO compared with WT rats” value (“renal uptake ratio of endogenous UT, KO” for short) is “obviously decreased”.

For the compound inulin, in series [2], the “urinary excretion / urine concentration, KO compared with WT rats” value is “significantly decreased”. For the same compound, where the note is “KO vs WT rats, i.v. cocktail”, the “plasma concentration, KO compared with WT rats” value is reported as “much higher”. The “AUC(0–12)” value (Slc22a6/Slc22a8-/- rats, i.v. cocktail (PAH 5 mg/kg, metformin 5 mg/kg, inulin 100 mg/kg), mean ± S.D., n = 5) is on record as 14,208.11 ± 1433.67 ng/mL·min. Under setting [4], the “AUC(0–∞)” value is recorded as 16,434.89 ± 1696.15 ng/mL·min, the CL/F is given as 6137.27 ± 639.31, the highest concentration (Cmax) turned out to be 376.40 ± 36.13 ng/mL and the “MRT(0–12)” value worked out at 35.34 ± 4.08 min. Moreover, under setting [4], the “MRT(0–∞)” value was 37.99 ± 4.20 min, the V1/F was 185,957.58 ± 15,232.62 L/kg and the t1/2α came out at 5.23 ± 2.51 min. Besides, under setting [5], the CL/F is reported as 7427.26 ± 724.03, the Cmax is on record as 324.47 ± 33.41 ng/mL, the “MRT(0–12)” value turned out to be 28.71 ± 5.54 min and the “MRT(0–∞)” value is reported as 34.03 ± 8.70 min. For the same compound, under setting [5], the V1/F is given as 241,341.96 ± 36672.44 L/kg and the t1/2α is 14.75 ± 4.72 min.

On to `O=c1[nH]c(=O)c2[nH]c(=O)[nH]c2[nH]1` [uric acid], for which, in series [1], the “plasma concentration of endogenous UT, KO compared with WT rats” value is on record as “significantly increased” and the “renal uptake ratio of endogenous UT, KO” value is “obviously decreased”.

As to `O=C(O)[C@H]1O[C@@H](Oc2ccccc2)[C@H](O)[C@@H](O)[C@@H]1O` [phenyl-β-D-glucuronide], in series [1], the “plasma concentration of endogenous UT, KO compared with WT rats” value was “significantly lower” and the “renal uptake ratio of endogenous UT, KO” value is listed as “much higher”.

Take `O=C(O)CNC(=O)c1ccccc1` [hippuric acid]: in series [1], the “plasma concentration of endogenous UT, KO compared with WT rats” value is recorded as “significantly increased” and the “renal uptake ratio of endogenous UT, KO” value is given as “obviously decreased”.

Turning to `Cc1ccc(O[C@@H]2O[C@H](C(=O)O)[C@@H](O)[C@H](O)[C@H]2O)cc1` [p-cresol glucuronide], in series [1], the “plasma concentration of endogenous UT, KO compared with WT rats” value is “significantly lower” and the “renal uptake ratio of endogenous UT, KO” value is given as “much higher”.

With `O=S(=O)([O-])Oc1c[nH]c2ccccc12.[K+]` [3-indoxyl sulfate potassium salt], in series [1], the “plasma concentration of endogenous UT, KO compared with WT rats” value was “significantly increased” and the “renal uptake ratio of endogenous UT, KO” value is given as “obviously decreased”.

For the compound `CC(=O)Nc1ccn([C@@H]2O[C@H](CO)[C@@H](O)[C@H]2O)c(=O)n1` [N-acetylcytidine], in series [1], the “plasma concentration of endogenous UT, KO compared with WT rats” value is recorded as “significantly increased” and the “renal uptake ratio of endogenous UT, KO” value is given as “obviously decreased”.

Regarding `O=C(O)CNC(=O)C=Cc1ccccc1` [N-(cinnamoyl)glycine], in series [1], the “plasma concentration of endogenous UT, KO compared with WT rats” value is “significantly lower” and the “renal uptake ratio of endogenous UT, KO” value is recorded as “much higher”.

Turning to `CN1CC(=O)NC1=N` [creatinine], in series [1], the “plasma concentration of endogenous UT, KO compared with WT rats” value is “not significantly increased”.

Consider `CCc1ccc(OS(=O)(=O)[O-])cc1.[K+]` [4-ethylphenyl sulfate], for which, in series [1], the “plasma concentration of endogenous UT, KO compared with WT rats” value is recorded as “significantly increased”; the “renal uptake ratio of endogenous UT, KO” value is given as “obviously decreased”; the “urine concentration of endogenous UT, KO compared with WT rats” value is recorded as “increased”.

With `CC(=O)N[C@@H](CCCN=C(N)N)C(=O)O` [N-acetyl-L-arginine], in series [1], the “plasma concentration of endogenous UT, KO compared with WT rats” value is given as “significantly increased” and the “renal uptake ratio of endogenous UT, KO” value was “obviously decreased”.

Take `Cn1cnc2c(ncn2[C@@H]2O[C@H](CO)[C@@H](O)[C@H]2O)c1=O` [1-methyl-inosine]: in series [1], the “plasma concentration of endogenous UT, KO compared with WT rats” value is “significantly increased”; the “renal uptake ratio of endogenous UT, KO” value is given as “obviously decreased”; the “urine concentration of endogenous UT, KO compared with WT rats” value was “clearly decreased”.

Consider `Nc1ccc(C(=O)NCC(=O)O)cc1` [PAH, p-aminohippuric acid], for which the “plasma protein binding rate” value in series [3] is “low”.

`CN(C)c1nc2c(ncn2[C@@H]2O[C@H](CO)[C@@H](O)[C@H]2O)c(=O)[nH]1` [N2,N2-dimethylguanosine]: the “urine concentration of endogenous UT, KO compared with WT rats” value in series [1] is listed as “clearly decreased”.

In the case of `OC[C@H]1O[C@@H](Oc2c[nH]c3ccccc23)[C@H](O)[C@@H](O)[C@@H]1O` [3-indolyl-β-D-glucopyranoside], in series [1], the “plasma concentration of endogenous UT, KO compared with WT rats” value is “significantly increased” and the “renal uptake ratio of endogenous UT, KO” value is recorded as “obviously decreased”.

For `O=C(O)c1cc(=O)[nH]c(=O)[nH]1` [orotic acid], in series [1], the “plasma concentration of endogenous UT, KO compared with WT rats” value is given as “significantly increased” and the “renal uptake ratio of endogenous UT, KO” value is “obviously decreased”.

With `Nc1ccccc1C(=O)C[C@@H](N)C(=O)O` [D-kynurenine], in series [1], the “plasma concentration of endogenous UT, KO compared with WT rats” value was “significantly increased” and the “renal uptake ratio of endogenous UT, KO” value is “obviously decreased”.

Consider `N[C@@H](CCCCNCC(=O)O)C(=O)O` [N6-(carboxymethyl)-l-lysine], for which, in series [1], the “plasma concentration of endogenous UT, KO compared with WT rats” value is given as “significantly increased” and the “renal uptake ratio of endogenous UT, KO” value is given as “obviously decreased”.
